# Assay results: ChEMBL document CHEMBL1770133, “Design of potent and selective GPR119 agonists for type II diabetes” (Bioorg Med Chem Lett, 2011)
# pEC50, pIC50: −log10 of the molar value.
# Assays:
# [1] = biological target: T1, Glucose-dependent insulinotropic receptor (Homo sapiens, UniProt Q8TDV5); assay: Agonist activity at human GPR119 expressed in CHO cells co-expressing Galpha15 assessed as increase of intracellular cAMP accumulation after 60 mins by HTRF assay; assay type: functional, cell-based
# T1 sequence (Q8TDV5 whole entry): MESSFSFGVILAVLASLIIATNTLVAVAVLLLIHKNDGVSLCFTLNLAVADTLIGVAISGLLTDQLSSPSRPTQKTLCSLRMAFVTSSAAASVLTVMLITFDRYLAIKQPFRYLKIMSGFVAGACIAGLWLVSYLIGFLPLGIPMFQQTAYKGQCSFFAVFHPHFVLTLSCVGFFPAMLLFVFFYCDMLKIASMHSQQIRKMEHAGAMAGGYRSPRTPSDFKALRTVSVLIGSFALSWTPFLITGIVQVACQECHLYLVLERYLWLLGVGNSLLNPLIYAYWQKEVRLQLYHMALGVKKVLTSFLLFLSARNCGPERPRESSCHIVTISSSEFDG
# [2] = biological target: T2, Glucose-dependent insulinotropic receptor (Mus musculus, UniProt Q7TQP3); assay: Agonist activity at mouse GPR119 expressed in CHO cells co-expressing Galpha15 assessed as increase of intracellular cAMP accumulation after 60 mins by HTRF assay; assay type: functional, cell-based
# T2 sequence (Q7TQP3 whole entry): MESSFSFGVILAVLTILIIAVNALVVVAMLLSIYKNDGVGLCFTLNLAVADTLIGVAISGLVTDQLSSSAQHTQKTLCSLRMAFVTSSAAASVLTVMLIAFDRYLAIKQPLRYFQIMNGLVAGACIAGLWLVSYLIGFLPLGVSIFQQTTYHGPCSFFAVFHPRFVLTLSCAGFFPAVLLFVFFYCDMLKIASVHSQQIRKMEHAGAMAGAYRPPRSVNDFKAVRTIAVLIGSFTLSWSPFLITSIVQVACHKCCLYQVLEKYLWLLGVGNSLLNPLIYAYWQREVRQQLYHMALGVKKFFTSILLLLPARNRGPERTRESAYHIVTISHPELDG
# [3] = Volume of distribution at steady state in mouse at 1 mg/kg, iv and 10 mg/kg, po; assay type: ADME, organism-based; conditions: in vivo, read-out: Vdss
# Mus musculus [4] = assay: Dose normalized AUC in mouse at 1 mg/kg, iv and 10 mg/kg, po; assay type: ADME, organism-based; conditions: in vivo
# [5] = Clearance in mouse at 1 mg/kg, iv and 10 mg/kg, po; assay type: ADME, organism-based; conditions: in vivo
# [6] = Half life in mouse at 1 mg/kg, iv and 10 mg/kg, po; assay type: ADME, organism-based; conditions: in vivo
# [7] = biological target: T3, Glucose-dependent insulinotropic receptor (Mus musculus) (UniProt Q7TQP3); assay: Agonist activity at mouse GPR119 expressed in CHO cells co-expressing Galpha15 assessed as increase of intracellular cAMP accumulation at 10 uM after 60 mins by HTRF assay; assay type: functional, cell-based
# T3 sequence (whole entry): T2 sequence (Q7TQP3 whole entry)
# [8] = Solubility of compound in PEG400 after 3 to 7 days; assay type: physicochemical
# Mus musculus [9] = assay: Antidiabetic activity in high fat fed po dosed C57BL/6 mouse assessed as change in AUC of blood glucose level administered 1 hr before glucose challenge measured up to 120 mins by oral glucose tolerance test; assay type: functional; conditions: C57BL6, Blood, read-out: MED
# [10] = biological target: T4, Voltage-gated inwardly rectifying potassium channel KCNH2 (Homo sapiens, UniProt Q12809); assay: Inhibition of human ERG by patch clamp technique
# T4 sequence (Q12809 whole entry): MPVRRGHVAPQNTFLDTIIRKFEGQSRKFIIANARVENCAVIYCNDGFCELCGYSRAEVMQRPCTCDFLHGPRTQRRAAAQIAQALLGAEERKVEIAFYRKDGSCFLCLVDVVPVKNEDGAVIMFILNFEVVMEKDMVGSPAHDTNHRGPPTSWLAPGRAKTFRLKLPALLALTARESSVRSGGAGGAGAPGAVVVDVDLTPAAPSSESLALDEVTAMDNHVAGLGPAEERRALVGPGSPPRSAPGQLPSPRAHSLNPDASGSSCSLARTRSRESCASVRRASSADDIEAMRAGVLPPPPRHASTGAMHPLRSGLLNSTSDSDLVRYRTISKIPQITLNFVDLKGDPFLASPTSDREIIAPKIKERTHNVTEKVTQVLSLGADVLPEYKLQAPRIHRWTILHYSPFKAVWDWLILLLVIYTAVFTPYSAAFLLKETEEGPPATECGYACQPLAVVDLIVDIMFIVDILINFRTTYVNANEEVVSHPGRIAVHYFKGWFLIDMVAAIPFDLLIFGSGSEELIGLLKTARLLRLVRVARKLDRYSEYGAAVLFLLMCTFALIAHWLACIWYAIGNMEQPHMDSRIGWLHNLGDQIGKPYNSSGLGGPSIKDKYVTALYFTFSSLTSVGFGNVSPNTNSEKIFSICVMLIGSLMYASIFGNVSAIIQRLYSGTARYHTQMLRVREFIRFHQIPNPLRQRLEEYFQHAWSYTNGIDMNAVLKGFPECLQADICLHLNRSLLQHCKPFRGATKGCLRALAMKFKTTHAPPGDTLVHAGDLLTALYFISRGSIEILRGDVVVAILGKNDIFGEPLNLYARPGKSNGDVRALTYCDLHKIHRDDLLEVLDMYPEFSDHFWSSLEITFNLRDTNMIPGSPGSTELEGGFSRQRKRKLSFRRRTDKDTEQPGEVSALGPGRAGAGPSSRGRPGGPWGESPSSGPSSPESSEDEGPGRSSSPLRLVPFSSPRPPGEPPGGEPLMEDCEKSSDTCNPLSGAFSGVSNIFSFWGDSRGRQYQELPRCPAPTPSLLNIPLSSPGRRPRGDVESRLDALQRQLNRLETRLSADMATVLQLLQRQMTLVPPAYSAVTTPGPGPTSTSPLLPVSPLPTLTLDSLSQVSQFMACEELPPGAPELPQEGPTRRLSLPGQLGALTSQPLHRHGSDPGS
# [11] = biological target: T4, Voltage-gated inwardly rectifying potassium channel KCNH2; assay: Inhibition of human ERG
# [12] = biological target: T5, Glucose-dependent insulinotropic receptor (Homo sapiens) (UniProt Q8TDV5); assay: Agonist activity at human GPR119 expressed in CHO cells co-expressing Galpha15 assessed as increase of intracellular cAMP accumulation at 10 uM after 60 mins by HTRF assay; assay type: functional, cell-based
# T5 sequence (whole entry): T1 sequence (Q8TDV5 whole entry)
# Mus musculus [13] = assay: Antidiabetic activity in high fat fed C57BL/6 mouse assessed as change in AUC of blood glucose level at 30 mg/kg, po qd administered 1 hr before glucose challenge measured up to 120 mins by oral glucose tolerance test relative to control; assay type: functional, C57BL6
smiles,measurement,setting,value
CS(=O)(=O)c1ccc(N2CCC(C3CCN(c4ncccn4)CC3)CC2)cc1,pEC50,[1],7.01
same,pEC50,[2],6.05
Cc1ccc(N2CCC(C3CCN(c4ccc(S(C)(=O)=O)cc4)CC3)CC2)nc1,pEC50,[1],7.74
same,pEC50,[2],7.14
CSc1ccc(N2CCC(C3CCN(C(=O)OC(C)(C)C)CC3)CC2)cc1,pEC50,[1],6.22
same,pEC50,[2],6.29
CC(C)(C)OC(=O)N1CCC(C2CCN(c3ccncn3)CC2)CC1,pEC50,[1],6.94
same,pEC50,[2],6.42
CS(=O)(=O)c1ccc(N2CCC(C3CCN(c4ccc(Cl)cn4)CC3)CC2)cc1,Vd,[3],2.3 L/kg
same,AUC,Mus musculus [4],19.3 µM·kg·h/mg
same,clearance,[5],2 mL/min/kg
same,half-life,[6],13.5 h
same,pEC50,[1],7.32
same,pEC50,[2],6.88
Cc1cccc(N2CCC(C3CCN(C(=O)OC(C)(C)C)CC3)CC2)c1,Activity,[7],< 10%
same,pEC50,[1],6.29
Clc1cnc(N2CCC([C@H]3C[C@H]3CCOc3ccc(-n4ccnn4)cn3)CC2)nc1,solubility,[8],11400 µg/mL
same,minimal effective dose,Mus musculus [9],1 mg/kg
same,pEC50,[1],8.70
same,pIC50,[10],4.36
same,pEC50,[2],8.40
CS(=O)(=O)c1ccc(N2CCC(C3CCN(c4ccc(C(F)(F)F)cn4)CC3)CC2)cc1,pEC50,[1],7.89
same,pEC50,[2],8.10
CC(C)(C)OC(=O)N1CCC(C2CCN(c3ccc(S(C)(=O)=O)cc3)CC2)CC1,Vd,[3],6.9 L/kg
same,AUC,Mus musculus [4],0.09 µM·kg·h/mg
same,clearance,[5],120 mL/min/kg
same,half-life,[6],0.6 h
same,pEC50,[1],7.66
same,pEC50,[2],7.44
CC(C)(C)OC(=O)N1CCC(C2CCN(c3ccc(C(N)=O)cc3)CC2)CC1,pEC50,[1],7.12
same,pEC50,[2],6.78
Cc1ccc(N2CCC(C3CCN(C(=O)OC(C)(C)C)CC3)CC2)cc1,pEC50,[1],6.47
same,pEC50,[2],5.72
O=C(NC1CC1)c1ccc(OCC2CC2C2CCN(c3ncc(Cl)cn3)CC2)cc1F (racemic; 52),pEC50,[1],7.70
same,pEC50,[2],7.64
"O=C(NC1CC1)c1ccc(OCCC2CC2C2CCN(c3ncc(Cl)cn3)CC2)cc1F (single isomer, unassigned; (+))",pIC50,[11],< 4.52
same,pEC50,[1],7.85
same,pEC50,[2],8.30
CS(=O)(=O)c1ccc(N2CCC(C3CCN(c4cnccn4)CC3)CC2)cc1,pEC50,[1],6.70
same,pEC50,[2],6.62
CC(=O)c1ccc(N2CCC(C3CCN(C(=O)OC(C)(C)C)CC3)CC2)cc1,pEC50,[1],7.60
same,pEC50,[2],6.47
O=C(NC1CC1)c1ccc(OCCCC2CC2CCCC2CCN(c3ncc(Cl)cn3)CC2)cc1F (racemic),pEC50,[1],9.70
same,pEC50,[2],9.10
Cc1ccccc1N1CCC(C2CCN(C(=O)OC(C)(C)C)CC2)CC1,Activity,[7],< 10%
same,Activity,[12],< 10%
CC(C)(C)OC(=O)N1CCC(C2CCN(c3cnccn3)CC2)CC1,pEC50,[1],6.99
same,pEC50,[2],6.85
O=C(NC1CC1)c1ccc(OCCC2CC2C2CCN(c3ncc(Cl)cn3)CC2)cc1F (racemic),pIC50,[11],< 4.52
same,pEC50,[1],9.52
same,pEC50,[2],9.40
Cc1cc(N2CCC(C3CCN(C(=O)OC(C)(C)C)CC3)CC2)nc(C#N)n1,pEC50,[1],9.00
same,pEC50,[2],8.70
O=C(NC1CC1)c1ccc(OCC2CC2C2CCN(c3ncc(Cl)cn3)CC2)cc1F (racemic; 51),pEC50,[1],7.42
same,pEC50,[2],8.05
Cc1cnc(N2CCC(C3CCN(c4cc(C#N)nc(C)n4)CC3)CC2)nc1,Activity,Mus musculus [13],46%
same,pIC50,[11],5.74
same,pEC50,[1],8.10
same,pEC50,[2],8.00
CS(=O)(=O)c1ccc(N2CCC(C3CCN(c4ccccn4)CC3)CC2)cc1,pEC50,[1],7.41
same,pEC50,[2],6.17
Cc1cc(N2CCC(C3CCN(c4ncc(Cl)cn4)CC3)CC2)nc(C#N)n1,Activity,Mus musculus [13],37%
same,pEC50,[1],8.70
same,pEC50,[2],7.96
Cc1cnc(N2CCC(C3CCN(c4cc(C#N)nc(C)n4)CC3)CC2)cn1,Activity,Mus musculus [13],7%
same,pIC50,[11],5.27
same,pEC50,[1],7.52
same,pEC50,[2],7.09
O=C(NC1CC1)c1ccc(OCC2CC2CC2CCN(c3ncc(Cl)cn3)CC2)cc1F (racemic; 57),pIC50,[11],< 4.52
same,pEC50,[1],8.05
same,pEC50,[2],7.74
CC(C)(C)OC(=O)N1CCC(C2CCN(c3ccnc(C#N)n3)CC2)CC1,pEC50,[1],8.22
same,pEC50,[2],7.96
CC(C)(C)OC(=O)N1CCC(C2CCN(c3cccc(C(N)=O)c3)CC2)CC1,Activity,[7],< 10%
same,Activity,[12],< 10%
CC(C)(C)OC(=O)N1CCC(C2CCN(c3ncccn3)CC2)CC1,pEC50,[1],6.28
same,pEC50,[2],6.28
CC(C)(C)OC(=O)N1CCC(C2CCN(c3ccccn3)CC2)CC1,pEC50,[1],6.08
same,pEC50,[2],5.60
CC(C)(C)OC(=O)N1CCC(C2CCN(c3cccnc3)CC2)CC1,Activity,[7],< 10%
same,pEC50,[1],5.44
Cc1cnc(N2CCC(C3CCN(c4ccc(S(C)(=O)=O)cc4)CC3)CC2)nc1,pEC50,[1],7.24
same,pEC50,[2],7.35
CS(=O)(=O)c1ccc(N2CCC(C3CCN(c4ccc(C#N)cn4)CC3)CC2)cc1,pEC50,[1],7.21
same,pEC50,[2],7.39
C[S+]([O-])c1ccc(N2CCC(C3CCN(C(=O)OC(C)(C)C)CC3)CC2)cc1 (stereo unspecified),pEC50,[1],7.96
same,pEC50,[2],6.88
CS(=O)(=O)c1ccc(N2CCC(C3CCN(c4ccc(F)cn4)CC3)CC2)cc1,pEC50,[1],7.72
same,pEC50,[2],6.69
Cc1ccnc(N2CCC(C3CCN(c4ccc(S(C)(=O)=O)cc4)CC3)CC2)n1,Activity,[7],< 10%
same,Activity,[12],< 10%
CS(=O)(=O)c1ccc(N2CCC(C3CCN(c4ncc(Cl)cn4)CC3)CC2)cc1,pEC50,[1],8.30
same,pEC50,[2],8.10
CC(C)(C)OC(=O)N1CCC(C2CCN(c3cc(C#N)ncn3)CC2)CC1,pEC50,[1],8.22
same,pEC50,[2],7.51
CC(C)(C)OC(=O)N1CCC(C2CCN(c3cccc(S(C)(=O)=O)c3)CC2)CC1,Activity,[7],< 10%
same,pEC50,[1],5.72
Clc1cnc(N2CCC([C@H]3C[C@H]3CCOc3ccc(-n4ccnn4)cc3)CC2)nc1,solubility,[8],5000 µg/mL
same,minimal effective dose,Mus musculus [9],10 mg/kg
same,pEC50,[1],8.40
same,pEC50,[2],8.22
"O=C(NC1CC1)c1ccc(OCCC2CC2C2CCN(c3ncc(Cl)cn3)CC2)cc1F (single isomer, unassigned; (-))",pIC50,[11],5.59
same,pEC50,[1],8.52
same,pEC50,[2],8.70
CC(C)(C)OC(=O)N1CCC(C2CCN(c3ccccc3)CC2)CC1,Activity,[7],< 10%
same,pEC50,[1],5.85
Cc1nc(C#N)cc(N2CCC(C3CCN(C(=O)OC(C)(C)C)CC3)CC2)n1,pEC50,[1],8.70
same,pEC50,[2],8.70
O=C(NC1CC1)c1ccc(OCC2CC2CC2CCN(c3ncc(Cl)cn3)CC2)cc1F (racemic; 56),pIC50,[11],5.92
same,pEC50,[1],7.74
same,pEC50,[2],7.44
